Assay results taken from patent publication US7803795B2, “Phthalazine derivatives as parp inhibitors” (Janssen Pharmaceutica N.V., priority 2004, dated 2010).
pIC50: −log10 of the molar value.

Experiments:
TANK-2 enzyme = target: T1, TANK-2 enzyme (Homo sapiens, UniProt Q9H2K2); test: in vitro Scintillation Proximity Assay (SPA) for TANK-2 inhibitory activity; type: biochemical
T1 construct: His tag (inferred from capture on a Ni-coated plate); made in house
T1 sequence (Q9H2K2 1-1166): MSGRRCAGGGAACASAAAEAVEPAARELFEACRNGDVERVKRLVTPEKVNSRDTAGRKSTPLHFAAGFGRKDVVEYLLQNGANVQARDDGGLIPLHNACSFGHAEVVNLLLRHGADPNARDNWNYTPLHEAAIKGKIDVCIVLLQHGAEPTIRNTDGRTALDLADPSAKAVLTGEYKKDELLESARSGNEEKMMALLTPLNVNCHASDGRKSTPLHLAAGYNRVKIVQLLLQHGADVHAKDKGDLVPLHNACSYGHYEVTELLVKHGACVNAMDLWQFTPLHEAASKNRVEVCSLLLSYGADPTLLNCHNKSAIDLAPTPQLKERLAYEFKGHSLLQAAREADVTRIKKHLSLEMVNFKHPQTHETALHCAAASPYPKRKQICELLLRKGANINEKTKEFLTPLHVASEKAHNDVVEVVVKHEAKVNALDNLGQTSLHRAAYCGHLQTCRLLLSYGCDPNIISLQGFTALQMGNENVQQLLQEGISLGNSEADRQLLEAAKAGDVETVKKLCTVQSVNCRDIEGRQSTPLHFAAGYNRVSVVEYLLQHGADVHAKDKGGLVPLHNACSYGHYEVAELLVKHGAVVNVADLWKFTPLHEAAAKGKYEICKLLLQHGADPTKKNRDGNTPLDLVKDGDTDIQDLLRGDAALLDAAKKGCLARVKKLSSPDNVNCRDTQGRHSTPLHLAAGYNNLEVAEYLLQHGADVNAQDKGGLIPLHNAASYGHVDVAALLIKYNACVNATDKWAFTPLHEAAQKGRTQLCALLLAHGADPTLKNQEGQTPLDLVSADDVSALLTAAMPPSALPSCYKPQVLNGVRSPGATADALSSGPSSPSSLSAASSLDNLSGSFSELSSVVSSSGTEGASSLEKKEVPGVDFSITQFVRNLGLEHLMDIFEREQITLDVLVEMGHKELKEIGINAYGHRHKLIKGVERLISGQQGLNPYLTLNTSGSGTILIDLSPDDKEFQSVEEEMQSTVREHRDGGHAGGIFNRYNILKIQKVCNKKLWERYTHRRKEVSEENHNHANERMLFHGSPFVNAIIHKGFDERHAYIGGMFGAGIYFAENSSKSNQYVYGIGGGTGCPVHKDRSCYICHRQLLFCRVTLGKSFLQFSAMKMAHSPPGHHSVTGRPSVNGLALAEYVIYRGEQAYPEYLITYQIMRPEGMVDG
Protocol: In Vitro Scintillation Proximity Assay (SPA) for Tank-2 Inhibitory Activity
Compounds of the present invention were tested in an in vitro assay based on SPA technology with Ni Flash plates (96 or 384 well).
In principle, the assay relies upon SPA technology for the detection of auto-poly(ADP-ribosylation of TANK-2 protein using [^3H]-nicotinamide adenine dinucleotide ([^3H]-NAD^+) as ADP-ribosyl donor.
A stock solution of [^3H]-NAD^+/NAD was made by adding 64.6 μl of [^3H]-NAD^+ (0.1 mCi/ml, supplier: Perkin Elmer) and 46.7 μl NAD-stock (10.7 mM, stored at −20° C., supplier Roche) to 1888.7 μl assay buffer (60 mM Tris/HCl, pH 7.4; 0.9 mM DTT; 6 mM MgCl2). The TANK-2 enzyme was produced as described in EP1238063.60 μl of assay buffer, together with 1 μl of compound in DMSO, 20 μl of [^3H]-NAD^+/NAD and 20 μl of TANK-2 enzyme (final concentration 6 μg/ml) was added per well into a 96-well Ni-coated flash plate (Perkin Elmer). After incubation of the mixture for 120 min. at room temperature, the reaction was terminated by adding 60 μl of stopsolution (42.6 mg NAD in 6 ml H2O). The plates were covered with a plate sealer and placed in a TopCountNXT™ (Packard) for scintillation counting. Values were expressed as counts per minute (cpm). For each experiment, controls (containing TANK-2 enzyme and DMSO without compound), a blank incubation (containing DMSO but no TANK-2 enzyme or compound) and samples (containing TANK-2 enzyme and compound dissolved in DMSO) were run in parallel. All compounds tested were dissolved and eventually further diluted in DMSO. […] In each test, the blank value was subtracted from both the control and the sample values. The control sample represented maximal TANK-2 enzyme activity. For each sample, the amount of cpm was expressed as a percentage of the mean cpm value of the controls. When appropriate, IC50-values (concentration of the drug, needed to reduce the TANK-2 enzyme activity to 50% of the control) were computed using linear interpolation between the experimental points just above and below the 50% level. Herein the effects of test compounds are expressed as pIC50 (the negative log value of the IC50-value). As reference compounds, 3-aminobenzamide and 4-amino-1,8-naphthalimide were included to validate the SPA assay. Herein the assay was described using 96-well plates. In the assay using 384-well plates the same final concentrations were used and volumes were adapted.

PARP-1 enzyme = target: T2, PARP-1 enzyme (Homo sapiens, UniProt P09874); test: in vitro filtration assay for PARP-1 inhibitory activity; type: biochemical; settings: [32P]-NAD, histones, nicked DNA; dose-response 10^-5 M to 10^-8 M; read-out: in vitro filter assay PARP-1 pIC50 (converted)
T2 construct: made in house
T2 sequence (P09874 whole entry): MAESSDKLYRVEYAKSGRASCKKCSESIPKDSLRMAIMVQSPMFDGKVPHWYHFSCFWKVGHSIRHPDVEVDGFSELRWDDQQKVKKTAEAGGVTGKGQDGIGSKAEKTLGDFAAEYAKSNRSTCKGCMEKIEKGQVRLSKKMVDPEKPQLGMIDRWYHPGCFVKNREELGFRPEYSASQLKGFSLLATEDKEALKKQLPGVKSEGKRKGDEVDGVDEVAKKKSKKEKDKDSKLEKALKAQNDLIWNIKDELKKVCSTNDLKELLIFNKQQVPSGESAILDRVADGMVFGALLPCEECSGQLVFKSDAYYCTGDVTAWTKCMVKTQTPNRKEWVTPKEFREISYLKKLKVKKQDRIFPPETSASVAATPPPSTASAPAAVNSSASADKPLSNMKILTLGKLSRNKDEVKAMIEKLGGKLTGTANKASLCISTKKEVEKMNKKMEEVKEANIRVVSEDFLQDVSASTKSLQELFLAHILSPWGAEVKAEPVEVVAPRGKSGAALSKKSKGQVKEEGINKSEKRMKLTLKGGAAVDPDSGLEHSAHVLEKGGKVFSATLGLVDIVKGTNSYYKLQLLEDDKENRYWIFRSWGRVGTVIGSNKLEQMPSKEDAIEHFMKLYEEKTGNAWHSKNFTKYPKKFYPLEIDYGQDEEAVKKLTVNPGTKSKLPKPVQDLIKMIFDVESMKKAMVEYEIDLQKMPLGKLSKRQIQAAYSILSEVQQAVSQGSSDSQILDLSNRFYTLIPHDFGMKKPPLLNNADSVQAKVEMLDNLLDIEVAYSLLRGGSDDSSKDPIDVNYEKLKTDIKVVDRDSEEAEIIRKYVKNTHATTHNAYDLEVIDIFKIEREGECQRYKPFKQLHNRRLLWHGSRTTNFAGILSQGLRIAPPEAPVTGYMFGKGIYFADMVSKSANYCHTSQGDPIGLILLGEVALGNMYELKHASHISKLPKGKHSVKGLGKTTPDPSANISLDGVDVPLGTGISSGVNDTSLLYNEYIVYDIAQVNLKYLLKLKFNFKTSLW
Protocol: In Vitro Filtration Assay for PARP-1 Inhibitory Activity
Compounds of the present invention were tested in an in vitro filtration assay assessing PARP-1 activity (triggered in the presence of nicked DNA) by means of its histone poly (ADP-ribosylation activity using [^32P]-NAD as ADP-ribosyl donor. The radioactive ribosylated histones were precipitated by trichloroacetic acid (TCA) in 96-well filterplates and the incorporated [^32P] measured using a scintillation counter
A mixture of histones (stock solution: 5 mg/ml in H2O), NAD^+ (stock solution: 100 mM in H2O), and [^32P]-NAD^+ in incubation buffer (50 mM Tris/HCl, pH 8; 0.2 mM DTT; 4 mM MgCl2) was made. A mixture of the PARP-1 enzyme (5-10 μg/ml) and nicked DNA was also made. The nicked DNA was prepared as described in the in vitro SPA for PARP-1 inhibitory activity. Seventy-five μl of the PARP-1 enzyme/DNA mixture together with 1 μl of compound in DMSO and 25 μl of histones-NAD^+/[^32P]-NAD^+ mixture was added per well of a 96-well filterplate (0.45 μm, supplier Millipore). The final concentrations in the incubation mixture were 2 μg/ml for the histones, 0.1 mM for the NAD^+, […] (0.5 μC) for the [^32P]-NAD^+ and 2 μg/ml for the nicked DNA. Plates were incubated for 15 min. at room temperature and the reaction was terminated by the addition of 10 μl ice cold 100% TCA followed by the addition of 10 μl ice-cold BSA solution (1% in H2O). The protein fraction was allowed to precipitate for 10 min. at 4° C. and plates were vacuum filtered. The plates were subsequently washed with, for each well, 1 ml of 10% ice cold TCA, 1 ml of 5% ice cold TCA and 1 ml of 5% TCA at room temperature. Finally 100 μl of scintillation solution (Microscint 40, Packard) was added to each well and the plates were transferred to a TopCountNXT™ (supplier: Packard) for scintillation counting and values were expressed as counts per minute (cpm). For each experiment, controls (containing PARP-1 enzyme and DMSO without compound), a blank incubation (containing DMSO but no PARP-1 enzyme or compound) and samples (containing PARP-1 enzyme and compound dissolved in DMSO) were run in parallel. All compounds tested were dissolved and eventually further diluted in DMSO. In first instance, compounds were tested at a concentration of 10^−5M. […] In each test, the blank value was subtracted from both the control and the sample values. The control sample represented maximal PARP-1 enzyme activity. For each sample, the amount of cpm was expressed as a percentage of the mean cpm value of the controls. When appropriate, IC50-values (concentration of the drug, needed to reduce the PARP-1 enzyme activity to 50% of the control) were computed using linear interpolation between the experimental points just above and below the 50% level. Herein the effects of test compounds are expressed as pIC50 (the negative log value of the IC50-value). As a reference compound, 4-amino-1,8-naphthalimide was included to validate the filtration assay.

[1] = tested on: heart (ischemia and reperfusion); settings: rabbits, cited from earlier work
distal colon (colitis) = settings: rats, colitis by intraluminal trinitrobenzene sulfonic acid in 50% ethanol; cited from earlier work

Structure (SMILES)	pIC50 (TANK-2 enzyme)	melting point [°C]	IC50 (PARP-1 enzyme) [nM]	reduced infarct size ([1]; single injection 1 mg/kg)	effect on inflammatory response and distal colon (distal colon (colitis))	reductions in infarct size in the heart ([1]; single injection 10 mg/kg, one minute before occlusion or one minute before reperfusion)
CC(=O)N1CCC(c2n[nH]c(=O)c3ccccc23)CC1 [Compound 5]	< 5.00	222	270	–	–	–
NC(=O)N1CCC(c2n[nH]c(=O)c3ccccc23)CC1 [Compound 6]	< 5.00	> 300	195	–	–	–
Oc1cccc2c(O)nccc12 [1,5-dihydroxyisoquinoline]	–	–	–	38-48%	–	–
NC(=O)c1cccc(N)c1 [3-amino-benzamide]	–	–	–	–	reduced the inflammatory response	32-42%

The next lines start with results.

pIC50 (TANK-2 enzyme)	melting point [°C]	IC50 (PARP-1 enzyme) [nM]	Structure (SMILES)	reduced infarct size ([1]; single injection 1 mg/kg)	effect on inflammatory response and distal colon (distal colon (colitis))	reductions in infarct size in the heart ([1]; single injection 10 mg/kg, one minute before occlusion or one minute before reperfusion)
< 5.00	202	29	NCCN1CCC(c2n[nH]c(=O)c3ccccc23)CC1 [Compound 8]	–	–	–
< 5.00	140	378	CCOC(=O)N1CC[C@H](Nc2n[nH]c(=O)c3ccccc23)C[C@@H]1Cc1ccccc1 [Compound 16]	–	–	–
< 5.00	182	15.5	NCC1CCN(c2n[nH]c(=O)c3ccccc23)CC1 [Compound 9]	–	–	–
< 5.00	238	24.3	O=c1[nH]nc(N[C@H]2CCN[C@@H](Cc3ccccc3)C2)c2ccccc12 [Compound 10]	–	–	–
5.02	259	88.9	N#CCN1CCC(c2n[nH]c(=O)c3ccccc23)CC1 [Compound 7]	–	–	–
–	226.9	17.2	O=c1[nH]nc(C2CCN(CC(O)COc3ccc(F)cc3)CC2)c2ccccc12 (centres unmarked) [Compound 2]	–	–	–
